Here are results for 26 molecules from ChEMBL document CHEMBL5357036, “Latest developments in coumarin-based anticancer agents: mechanism of action and structure-activity relationship studies” (RSC Med Chem, 2024).

Molecules are shown by their SMILES. Values after ≈ are worked out from the molar mass of the structure shown.

Test [1] concerns MCF7. Briefly: Cytotoxicity against human MCF7 cells assessed as inhibition of cell growth measured after 24 hrs by MTT assay. In kind it is functional, cell-based. The note with it: MCF7, 24 h. (Tetrazolium dyes change colour on reduction, which living cells bring about.)
Test [2] relates to MCF7. As to the kind of experiment: Antiproliferative activity against human MCF7 cells assessed as reduction in cell viability measured after 24 hrs by MTT assay. The test is classed as functional, cell-based. The note with it: MCF7, 24 h.
Test [3] relates to MCF7. Briefly: Cytotoxicity against human MCF7 cells assessed as cell growth inhibition incubated for 48 hrs by SRB assay. The test is classed as functional, cell-based. Particulars: MCF7, 48 h. On the technique in general: The SRB assay estimates cell density from bound dye.
For the next test, the system named is T47D. As to the kind of experiment: Anticancer activity against human T47D cells assessed as cell growth inhibition. In kind it is functional, cell-based.
For test [4], the system named is MCF7. As to the kind of experiment: Growth inhibition of human MCF7 cells incubated for 48 hrs by SRB assay. In kind it is functional.
A further test concerns HCT-116. As to the kind of experiment: Cytotoxicity against human HCT-116 cells assessed as reduction in cell viability incubated for 48 hrs by SRB assay. In kind it is functional, cell-based. The note with it: HCT-116, 48 h.
Another test deals with HT-29. Briefly: Cytotoxicity against human HT-29 cells assessed as reduction in cell viability incubated for 48 hrs by SRB assay. In kind it is functional, cell-based. Particulars: HT-29, 48 h.
Test [5] concerns MCF7. Briefly: Anticancer activity against human MCF7 cells assessed as cell growth inhibition by MTT assay. The test is classed as functional, cell-based.
Test [6] has as its system MCF7. Briefly: Cytotoxicity against human MCF7 cells assessed as reduction in cell growth incubated for 48 hrs by MTT assay. The test is classed as functional, cell-based. Particulars: MCF7, 48 h.
The test system of test [7] is A549. As to the kind of experiment: Cytotoxicity against human A549 cells assessed as reduction in cell growth incubated for 48 hrs by MTT assay. In kind it is functional, cell-based. The note with it: A549, 48 h.
In a further test the test system is SW480. Briefly: Cytotoxicity against human SW480 cells assessed as reduction in cell viability incubated for 48 hrs by MTT. In kind it is functional, cell-based. The note with it: SW480, 48 h.
In test [8] the test system is MCF7. Briefly: Cytotoxicity against human MCF7 cells assessed as reduction in cell growth incubated for 5 days by MTT assay. The note with it: MCF7, 120 h. The test is classed as functional, cell-based.
The next test deals with HOS. Briefly: Cytotoxicity against human HOS cells assessed as reduction in cell growth incubated for 5 days by MTT assay. In kind it is functional, cell-based. Particulars: 120 h.
The subject of test [9] is MCF7. As to the kind of experiment: cells. The note with it: Homo sapiens, MCF7, 24 h.
Description: Cytotoxicity against human MCF7 cells assessed as reduction in cell viability incubated for 24 hrs by MTT assay
Another test deals with HepG2. As to the kind of experiment: Antiproliferative activity against human HepG2 cells assessed as reduction in cell viability by MTT assay. The test is classed as functional, cell-based.
A further test has as its system HeLa. Briefly: Antiproliferative activity against human HeLa cells assessed as reduction in cell viability by MTT assay. In kind it is functional, cell-based.
The subject of another test is DU-145. As to the kind of experiment: Antiproliferative activity against human DU-145 cells assessed as reduction in cell viability by MTT assay. In kind it is functional, cell-based.
For another test, the system named is MCF7-DOX. Briefly: Antiproliferative activity against human MCF7-DOX cells assessed as reduction in cell viability by MTT assay. In kind it is functional, cell-based.
A further test deals with SK-OV-3. Briefly: Antiproliferative activity against human SK-OV-3 cells assessed as reduction in cell viability by MTT assay. In kind it is functional, cell-based.
The test system of test [10] is A549. Briefly: Antiproliferative activity against human A549 cells assessed as reduction in cell viability by MTT assay. The test is classed as functional, cell-based.
For test [11], the target named is ALK tyrosine kinase receptor (Homo sapiens, UniProt Q9UM73, L1196M). As to the kind of experiment: Inhibition of ALK L1196M mutant (unknown origin).
In test [12] the test system is MCF7. Briefly: Antiproliferative activity against human MCF7 cells assessed as reduction in cell viability by MTT assay. The test is classed as functional, cell-based.
For the next test, the system named is K562. As to the kind of experiment: Cytotoxicity against human K562 cells assessed as reduction in cell growth by MTT assay. In kind it is functional, cell-based.
Test [13] concerns MDA-MB-231. As to the kind of experiment: Antiproliferative activity against human MDA-MB-231 cells assessed as reduction in cell viability measured after 72 hrs under normoxia condition by MTT assay. Particulars: MDA-MB-231, 72 h.
In test [14] the test system is MDA-MB-231. As to the kind of experiment: Antiproliferative activity against human MDA-MB-231 cells assessed as reduction in cell viability measured after 72 hrs under hypoxia condition by MTT assay. The test is classed as functional, cell-based. Particulars: MDA-MB-231, 72 h.

Sequence of ALK tyrosine kinase receptor (Q9UM73 19-1620 L1196M limits assumed): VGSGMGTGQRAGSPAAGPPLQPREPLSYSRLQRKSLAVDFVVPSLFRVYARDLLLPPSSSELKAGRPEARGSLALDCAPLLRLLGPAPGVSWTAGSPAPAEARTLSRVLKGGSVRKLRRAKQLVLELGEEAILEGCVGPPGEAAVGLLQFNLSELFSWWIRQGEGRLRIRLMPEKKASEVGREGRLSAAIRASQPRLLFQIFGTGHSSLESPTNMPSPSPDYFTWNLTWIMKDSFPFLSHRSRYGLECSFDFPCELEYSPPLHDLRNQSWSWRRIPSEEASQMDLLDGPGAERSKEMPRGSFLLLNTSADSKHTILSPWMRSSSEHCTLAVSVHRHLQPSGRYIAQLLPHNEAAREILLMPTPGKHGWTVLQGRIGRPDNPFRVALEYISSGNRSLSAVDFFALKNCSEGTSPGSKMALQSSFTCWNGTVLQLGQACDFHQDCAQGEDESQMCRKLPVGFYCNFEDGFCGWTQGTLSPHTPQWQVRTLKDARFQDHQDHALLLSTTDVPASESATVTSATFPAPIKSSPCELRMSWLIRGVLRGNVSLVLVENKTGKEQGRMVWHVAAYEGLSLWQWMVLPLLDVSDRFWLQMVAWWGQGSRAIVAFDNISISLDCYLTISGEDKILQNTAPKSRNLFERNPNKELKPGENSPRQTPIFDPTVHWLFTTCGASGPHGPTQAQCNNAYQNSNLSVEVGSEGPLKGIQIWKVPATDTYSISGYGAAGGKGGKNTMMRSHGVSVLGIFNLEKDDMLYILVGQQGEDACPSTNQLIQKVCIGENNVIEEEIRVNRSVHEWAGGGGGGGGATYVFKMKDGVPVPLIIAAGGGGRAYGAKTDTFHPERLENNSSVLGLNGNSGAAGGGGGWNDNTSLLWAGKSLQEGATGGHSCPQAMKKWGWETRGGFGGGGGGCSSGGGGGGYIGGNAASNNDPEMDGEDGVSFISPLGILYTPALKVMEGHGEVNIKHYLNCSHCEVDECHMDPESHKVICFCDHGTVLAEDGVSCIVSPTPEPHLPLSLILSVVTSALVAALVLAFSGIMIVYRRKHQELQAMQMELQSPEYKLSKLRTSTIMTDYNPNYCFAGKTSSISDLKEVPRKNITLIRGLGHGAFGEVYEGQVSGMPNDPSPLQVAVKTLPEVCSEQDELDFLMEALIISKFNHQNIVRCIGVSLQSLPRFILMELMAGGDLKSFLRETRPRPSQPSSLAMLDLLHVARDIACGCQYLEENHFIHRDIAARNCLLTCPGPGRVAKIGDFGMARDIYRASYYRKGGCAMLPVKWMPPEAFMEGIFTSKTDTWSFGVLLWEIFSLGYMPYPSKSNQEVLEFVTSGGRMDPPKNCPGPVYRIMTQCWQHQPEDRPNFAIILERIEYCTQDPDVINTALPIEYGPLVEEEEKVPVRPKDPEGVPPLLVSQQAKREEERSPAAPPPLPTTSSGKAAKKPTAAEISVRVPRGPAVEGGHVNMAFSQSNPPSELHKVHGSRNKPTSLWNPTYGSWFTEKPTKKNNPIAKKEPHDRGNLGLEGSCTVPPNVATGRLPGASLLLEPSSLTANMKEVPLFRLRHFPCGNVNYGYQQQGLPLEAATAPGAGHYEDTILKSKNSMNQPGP

As a reminder, the IC50 is the point on the concentration scale where inhibition reaches its midpoint. In the case of `COc1ccc(-c2cc(-c3cc4ccccc4oc3=O)nc3nc(C)[nH]c(=O)c23)cc1`, in the test on MCF7 [1], the half-maximal inhibitory concentration (IC50) was 1100 nM.

`Cc1cc(OCc2cn(C3C(=O)N(c4cccc([N+](=O)[O-])c4)C3/C=C\c3ccccc3)nn2)cc2oc(=O)cc(C)c12` (stereo unspecified): in the test with MCF7 [2], the 50% inhibitory concentration (IC50) worked out at 53.6 µM.

For the molecule `COc1cc(/C=C2/SC(=O)N(CCCOc3ccc4c(C)cc(=O)oc4c3)C2=O)cc(OC)c1O`, the IC50 in the test on MCF7 [3] was found to be 12.1 µg/mL (≈ 24.4 µM). As usually defined, the GI50 is the concentration that inhibits growth by half. The low end stands for more potent growth inhibition, the high end for less potent growth inhibition. As to `COc1cc(/C=C/C(=O)c2cc3ccccc3oc2=O)ccc1OCCN1CCCCC1`, the IC50 in the test with T47D is 2320 nM. Also, in the test with MCF7 [4], growth was halved (GI50) at 32.5 µg/mL (≈ 75 µM). Turning to `Cc1cc(=O)oc2cc(Nc3nc(-c4ccc(Cl)cc4)cs3)ccc12`, the 50% inhibitory concentration (IC50) in the test with HCT-116 and in the test with HT-29 was 250 nM in each case. For the molecule `COc1ccc(-c2cc(-c3cc4ccccc4oc3=O)nc(N)c2C(N)=O)cc1`, the 50% inhibitory concentration (IC50) with MCF7 [1] was determined as 1100 nM. As to `COc1ccccc1-c1csc(Nc2ccc3c(C)cc(=O)oc3c2)n1`, the 50% inhibitory concentration (IC50) in the test on HCT-116 and in the test with HT-29 was 250 nM each time. On to `COc1ccc(/C=C2/SC(=O)N(CCCOc3ccc4c(C)cc(=O)oc4c3)C2=O)cc1`, for which the half-maximal inhibitory concentration (IC50) in the test with MCF7 [3] turned out to be 15.6 µg/mL (≈ 34.7 µM).

Take `CCN(CC)c1ccc2oc(=O)c(-c3csc(-n4nc(-c5ccccc5)cc4N)n3)cc2c1`: the IC50 with MCF7 [5] amounted to 8 µM. For `Cc1c(NC(=O)CNCc2cccnc2)c(=O)oc2ccccc12`, the half-inhibitory concentration (IC50) in the test with MCF7 [6] and with A549 [7] was 69.1 µM throughout.

Consider `COc1ccc(-c2cc(-c3cc4ccccc4oc3=O)nc(NC(C)=O)c2C#N)cc1`, for which the IC50 with MCF7 [1] was found to be 1100 nM. Regarding `COc1cc(/C=C/c2ccc3ccc(=O)oc3c2)cc(OC)c1O`, in the test on SW480, the 50% inhibitory concentration (IC50) is 1010 nM.

As for `CC(c1cc2ccccc2oc1=O)(c1c[nH]c2ccc(I)cc12)c1c[nH]c2ccc(I)cc12`, the results for the IC50 in the test on MCF7 [8] and in the test with HOS were 28 µM and 8.75 µM, respectively. In the test with MCF7 [9], `C/C(=N\Nc1nc(C)c(/N=N/c2ccc(Cl)cc2)s1)c1cc2cc(/N=N/c3ccccc3)ccc2oc1=O` showed an IC50 of 10.5 µM. On to `Cc1ccc2c(c1)/C(=N\O)C(=O)N2CCOCCn1cc(COc2ccc3c(C)cc(=O)oc3c2)nn1`, for which the IC50 in the test with HepG2 is 19.9 µM; in the test with HeLa, 21.3 µM; in the test on DU-145, 31.5 µM; with MCF7-DOX, 15.5 µM; with SK-OV-3, 18 µM; in the test on A549 [10], 18.7 µM.

Molecule `COc1ccc2cc(-c3nc4ccc(OC)cc4s3)c(=O)oc2c1` gave an IC50 in test [11] of 450 nM. As to `Cc1cc(OCc2cn(C3C(=O)N(c4cccc(Cl)c4)C3/C=C\c3ccccc3)nn2)cc2oc(=O)cc(C)c12` (stereo unspecified), the IC50 with MCF7 [2] was 58.6 µM. As for `CC(c1cc2ccccc2oc1=O)(c1c[nH]c2ccccc12)c1c[nH]c2ccccc12`, the values for the IC50 with MCF7 [8] and with HOS were 19.8 µM and 20.8 µM, respectively.

For `O=C(/C=C/c1ccccc1OCCN1CCCCC1)c1cc2ccccc2oc1=O`, the half-maximal inhibitory concentration (IC50) in the test on T47D stood at 2320 nM. Further, the GI50 in the test on MCF7 [4] came to 18.9 µg/mL (≈ 46.8 µM). Turning to `CO/N=C1\C(=O)N(CCOCCOCCOCCn2cc(COc3ccc4c(C)cc(=O)oc4c3)nn2)c2ccc(F)cc21`, the IC50 with HepG2 came to 26.1 µM; in the test with MCF7 [12], 29.2 µM; in the test with HeLa, 25.5 µM; with DU-145, 33.4 µM; in the test with MCF7-DOX, 20.1 µM; in the test on SK-OV-3 it was 35.3 µM. Also, the concentration for half-maximal inhibition (IC50) in the test on A549 [10] turned out to be 28.7 µM. On to `O=C(/C=C/c1ccc(N2CCOCC2)cc1)c1cc2ccccc2oc1=O`, for which, in the test with T47D, the IC50 is 900 nM.

Consider `Cc1c(Cc2ccc(NC(=O)Nc3ccc(Cl)c(F)c3)nc2)c(=O)oc2cc(O)c(C(C)(C)C)cc12`, for which the half-maximal inhibitory concentration (IC50) in the test on K562 turned out to be 1660 nM.

Regarding `Cc1ccc2c(c1)C(=O)C(=O)N2CCOCCn1cc(COc2ccc3c(C)cc(=O)oc3c2)nn1`, the concentration for half-maximal inhibition (IC50) with MCF7 [12] was determined as 28.7 µM. In the case of `O=c1cc(O)c2ccccc2o1` [4-HYDROXYCOUMARINS], the IC50 in the test on MDA-MB-231 [13] and with MDA-MB-231 [14] was at least 100000 nM in each case. As for `COc1cccc2c1C(=O)c1c(O)c3c(c(O)c1C2=O)C[C@@](O)(C(=O)CO)C[C@@H]3O[C@H]1C[C@H](N)[C@H](O)[C@H](C)O1` [DOXORUBICIN], the half-maximal inhibitory concentration (IC50) with MDA-MB-231 [13] was 1070 nM; in the test on MDA-MB-231 [14], 600 nM.

On to `CNC(=O)c1cc(Oc2ccc(NC(=O)Nc3ccc(Cl)c(C(F)(F)F)c3)cc2)ccn1` [SORAFENIB], for which inhibition with MCF7 [9] was half-maximal at 5.1 µM (IC50).
